We go through 9 compounds from PubChem BioAssay (NCI).

Common to all, as to experiment: NCI-60 cell line screen, 48 h
In experiment [1] the test system is ACHN renal.
Experiment [2] deals with BT-549 breast.
In experiment [3] the test system is HCT-15 colon.
Experiment [4] relates to HOP-92 NSCLC.
The subject of experiment [5] is MOLT-4 leukemia.
Experiment [6] concerns NCI-H23 lung.
The subject of experiment [7] is NCI/ADR-RES ovarian.
The test system of experiment [8] is SF-295 CNS.
Experiment [9] concerns SF-539 CNS.
Experiment [10] concerns SK-MEL-5 melanoma.

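Briefly, cells in 96-well plates were exposed to five compound concentrations for 48 h, and endpoints were estimated by linear interpolation. Here, GI50 denotes the concentration required for 50% inhibition of growth. At the TGI there is no net growth.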 Bounds are passed on as bounds.

Take `O=C(Nc1ccc(Cl)cc1F)c1cc(Cl)ccc1O`: the GI50 was 0.532 µM in experiment [1]; 0.379 µM in experiment [2]; 0.519 µM in [3]; 0.157 µM in [4]; 1.14 µM in [5]; 0.294 µM in experiment [6]. The GI50 in experiment [7] was 0.364 µM; in [8], 0.99 µM; in experiment [9], 0.432 µM; in experiment [10], 0.209 µM. In addition, the TGI in experiment [1] was greater than 88 µM; in experiment [2], 2.04 µM; in experiment [4], 0.553 µM; in experiment [5], 3.99 µM; in experiment [6], 1.91 µM; in experiment [7], 2.38 µM. Besides, the values for the TGI in experiment [8], in experiment [9] and in experiment [10] were 2.67 µM, 4.58 µM and 0.529 µM, respectively.
For `O=C1C(Cl)=C(Nc2ccccn2)C(=O)c2ccccc21`, the GI50 is 3 µM in experiment [1]; 2.09 µM in experiment [2]; 3.54 µM in experiment [3]; 3.17 µM in experiment [4]; 2.79 µM in [5]; 2.18 µM in experiment [6]. In addition, the results for the GI50 in experiment [7], in experiment [9] and in [10] were 3.23 µM, 2.07 µM and 1.65 µM, respectively. The TGI was 9.93 µM in experiment [1]; 4.58 µM in experiment [2]; greater than 100 µM in [3]; 9.84 µM in experiment [4]; 6.6 µM in [5]; 7.4 µM in experiment [6]. In addition, the figures for the TGI in [7], in experiment [9] and in [10] were 17.2 µM, 4.75 µM and 3.03 µM, respectively.
For `COc1ccc(CCN2COc3ccc4ccc(=O)oc4c3C2)cc1OC`, the TGI in experiment [1], in experiment [2], in [3], in [4], in [5] and in experiment [6] was greater than 100 µM in each case. The TGI in experiment [7], in [8], in [9] and in experiment [10] was greater than 100 µM throughout.
`Cc1[nH]c2ccccc2c1C1=CC(=O)C=CC1=O`: the GI50 is 3.63 µM in experiment [1]; 11.1 µM in experiment [2]; 10.9 µM in experiment [3]; 13 µM in [4]; 13 µM in experiment [6]; 10.9 µM in experiment [7]. Moreover, the figures for the GI50 in experiment [8], in experiment [9] and in experiment [10] were 16.4 µM, 14.3 µM and 12 µM, respectively. Further, the TGI in [1] was 12.5 µM; in experiment [2], 24.4 µM; in experiment [3], 27.1 µM; in [4] it was 26.3 µM; in experiment [6], 31.5 µM; in experiment [7] it was 28.4 µM. Also, the TGI stood at 41 µM in experiment [8], 28.3 µM in experiment [9] and 25.3 µM in experiment [10].
`CC(=O)Nc1ccc(S(=O)(=O)c2ccc(NC(C)=O)cc2)cc1`: the GI50 in [1], in experiment [2], in [3], in experiment [4], in experiment [5] and in experiment [6] was greater than 100 µM in each case. The GI50 in experiment [7] and in [10] was greater than 100 µM throughout. Further, the TGI in experiment [1], in experiment [2], in [3], in experiment [4], in experiment [5] and in experiment [6] was greater than 100 µM throughout. In addition, the TGI in experiment [7] and in experiment [10] was greater than 100 µM throughout.
`Cc1nn(-c2ccccc2)c(C)c1/C=N/N1CCN(Cc2ccccc2)CC1`: the GI50 was 52.4 µM in [1]; 48.2 µM in experiment [2]; 30.4 µM in [3]; 26.8 µM in experiment [5]; 41.7 µM in [6]; 50.3 µM in [7]. The GI50 is greater than 100 µM in experiment [8], 76.4 µM in [9] and 18.7 µM in [10]. For the same compound, the TGI in experiment [1] was greater than 100 µM; in experiment [2], greater than 100 µM; in experiment [3], greater than 100 µM; in experiment [5], 55.2 µM; in experiment [6], greater than 100 µM; in [7] it was greater than 100 µM. The TGI in experiment [8] was greater than 100 µM; in experiment [9] it was greater than 100 µM; in [10], 36.7 µM.
As for `CN1CCN(CCCOc2ccc3nc(Nc4ccc(C(F)(F)F)c(Cl)c4)ccc3c2)CC1`, the GI50 in experiment [1] is 1.74 µM; in [2] it was 1.84 µM; in experiment [3], 1.14 µM; in experiment [4], 1.15 µM; in experiment [5], 1.63 µM; in [6], 1.47 µM. The GI50 was 1.88 µM in experiment [7], 1.67 µM in [8] and 1.7 µM in experiment [10]. For the same compound, the TGI was 3.31 µM in experiment [1]; 3.53 µM in experiment [2]; 2.62 µM in experiment [3]; 2.94 µM in [4]; 3.91 µM in [5]; 3 µM in experiment [6]. Further, the TGI in experiment [7] was 5.22 µM; in experiment [8] it was 3.2 µM; in experiment [10], 3.18 µM.
On to `O=C(c1ccncc1)N1CCN(C2=NS(=O)(=O)c3ccccc3N2c2ccccc2)CC1`, for which the GI50 in experiment [1] was 11.1 µM; in experiment [2], 17.1 µM; in experiment [3], greater than 100 µM; in experiment [4], 4.07 µM; in [6], 7.43 µM; in [7], greater than 100 µM. In addition, the GI50 in experiment [8] is 9.87 µM; in [9], 3.85 µM; in experiment [10], 11.6 µM. The TGI in [1] is 53.6 µM; in experiment [2], 52.1 µM; in [3] it was greater than 100 µM; in [4] it was 21.4 µM; in experiment [6], 41.6 µM; in experiment [7], greater than 100 µM. In addition, the TGI in [8] was greater than 100 µM; in experiment [9], 22.8 µM; in experiment [10] it was 24.1 µM.
Take `CCc1cccc(CC)c1NC(=O)c1ccn2c1CCc1cnc(Nc3ccc(N4CCN(C)CC4)cc3OC)nc1-2`: the GI50 is 2.31 µM in experiment [1]; 2.23 µM in experiment [2]; 0.0413 µM in experiment [3]; 1.95 µM in experiment [4]; 4.48 µM in experiment [6]; 1.33 µM in experiment [7]. For the same compound, the GI50 in [8] is 1.62 µM; in experiment [9], 1.1 µM; in experiment [10] it was 1.61 µM. The TGI in [1] was 12.4 µM; in experiment [2], 6.63 µM; in [3], 2.55 µM; in [4], 9.66 µM; in experiment [6], 27 µM; in experiment [7] it was greater than 100 µM. The figures for the TGI in experiment [8], in [9] and in experiment [10] were 3.73 µM, 3.19 µM and 3.02 µM, respectively.
